In patent publication US20210190799A1, “METHOD FOR DIAGNOSING LIVER DISEASES AND METHOD FOR SCREENING THERAPEUTIC AGENT FOR LIVER DISEASES USING CHANGES IN EXPRESSION OF TM4SF5 PROTEIN” (SEOUL NATIONAL UNIVERSITY R&DB FOUNDATION, priority 2017, published 2021):

How the values were obtained:
STAT3 protein = test: Western blotting of separated liver tissue treated with laminin; type: cell-based, mouse; conditions: FIG. 26B
Experimental: Particularly, a lysis buffer [50 mM Tris-HCl (pH 7.4), 1% NP40, 0.25% sodium dioxycholate, 150 mM NaCl, 1 mM EDTA], SDS (sodium dodecyl sulfate), Na3O4V and protease inhibitor cocktail (GenDepot) were added to the obtained liver tissue, which was left at 4° C. for 15 minutes to lyse the tissue. The lysate was centrifuged for 30 minutes under the conditions of 13,000 rpm and 4° C. to obtain a supernatant. The proteins present in the supernatant were quantified using BCA reagent (Thermo Scientifics). 4× sample buffer [4 ml of 100% glycerol, 2.4 ml of Tris-HCl (pH 6.8), 0.8 g of SDS, 4 mg of brominated phenol blue, 0.4 ml of β-mercaptoethanol and 3.1 ml of H2O, final volume: 10 ml] was added thereto, which was boiled at 100° C. for 5 minutes. SDS-PAGE was performed, and the proteins were transferred to a nitrocellulose membrane (Whatman). The membrane was pretreated in a solution containing 5% skim milk for 1 hour, and reacted with the antibodies against laminin (Abcam, UK), ACC1 (Cell Signalling, USA), SREBP1 precursor (Santa cruz, USA), mature SREBP1 (Santa cruz, USA), MTP (Santa cruz, USA), PPARα (Santa cruz, USA), pY^706STAT3 (Millipore, USA), STAT3 (Santa cruz, USA), α-tubulin (Sigma, USA) and TM4SF5 (J Clin Invest. 2008 April; 118(4): 1354-66) as the primary antibodies at 4° C. for 15 hours. […]

TM4SF5 gene = test: TM4SF5 shRNA in differentiated 3T3-L1 adipocytes (oil red O staining, real-time PCR); type: cell-based, mouse
Experimental: To confirm whether the fat production was suppressed when the expression of TM4SF5 protein was suppressed in adipocytes, oil red O staining was performed.
First, mouse 3T3-L1 adipocyte progenitor cells were prepared by culturing in DMEM supplemented with 10% NBCS (Gibco, 16010159) and 1% penicillin/streptomycin. The prepared cells were distributed in a 6-well plate at the density of 1×10^5/well.
After 4 days of the distribution, when the progenitor cells were full in the wells, the cells were further cultured for 48 hours. Then, the medium was replaced with the adipocyte differentiation medium (MDI medium containing 10% FBS) supplemented with 1 μM dexamethasone, 0.5 mM IBMX (3-Isobutyl-1-methylxanthine) and 10 μg/m ? of insulin (Sigma, USA). After culturing the cells for 2 days, the medium was replaced with DMEM supplemented with 10% FBS and 10 μg/m ? of insulin. After replacing with the medium, the cells were cultured for 10 days, and then cultured using DMEM supplemented with 10% FBS and 1% penicillin/streptomycin to obtain differentiated adipocytes. The adipocytes were transfected with TM4SF5 shRNA (shTM4SF5, 5′-[…]-3′, SEQ. ID. NO: 35) using lipofectamine 3000.
Whether the expression of the fat-related gene changed when the expression of TM4SF5 gene was suppressed was confirmed by the following method. […]

TM4SF5 protein = test: shTM4SF5 in hepatocytes of the liver disease model mouse, Western blotting; type: cell-based; conditions: FIG. 25
Description: First, hepatocytes were obtained from the isolated liver tissue as described above. The expressions of TM4SF5 and STAT3 proteins in the obtained hepatocytes were suppressed by transfecting the cells with shTM4SF5 or silencing STAT3 [On-Target plus SMART pool siRNA (Thermo)], and then the expression changes of laminin were confirmed by Western blotting as described above.

Substance	expression level of STAT3 protein (STAT3 protein)	production of fat, oil red O staining (TM4SF5 gene; FIG. 6A)	expressions of Pparγ, CD36, Fasn, Srebp1 and Fabp1 genes (TM4SF5 gene; FIG. 6B)	expression of laminin protein (TM4SF5 protein)
laminin	not changed			
shTM4SF5: TM4SF5 shRNA, 5′-CCTGGAATGTGACGCTCTTCTCGCTGCTG-3′, SEQ. ID. NO: 35 (listed as DNA, chemistry not fully specified)		inhibited	suppressed	suppressed
